Tests used:
Format in all cases: in vivo
[1] = test system: barnyardgrass (Echinochloa crus-galli, ECHCG); assay: Post-emerge test, greenhouse herbicide activity screening; settings: post-emerge, 14 days after application, rating scale 0-100
In short: (§1)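 Plants grown in 10 cm pots of sandy loam mix received acetone-dissolved compounds through a moving flat-fan nozzle. Doses ranged from 15 to 1000 g ai/ha. Pre-emerge pots were seeded one day earlier, post-emerge pots 8–21 days earlier. Fourteen days on, each pot was graded 0–100 for damage.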

[2] = test system: ivyleaf morningglory (Ipomoea hederacea, IPOHE); assay: as above; settings: post-emerge, 14 days after application, rating scale 0-100
In short: as §1

[3] = test system: lambsquarters (Chenopodium album, CHEAL); assay: as above; settings: post-emerge, 14 days after application, rating scale 0-100
In short: as §1

[4] = test system: redroot pigweed (Amaranthus retroflexus, AMARE); assay: as above; settings: post-emerge, 14 days after application
In short: as §1

[5] = test system: green foxtail (Setaria viridis, SETVI); assay: as above; settings: post-emerge, 14 days after application, rating scale 0-100
In short: as §1

[6] = test system: velvetleaf (Abutilon theophrasti, ABUTH); assay: as above; settings: post-emerge, 14 days after application, rating scale 0-100
In short: as §1

[7] = test system: large crabgrass (Digitaria sanguinalis, DIGSA); assay: as above; settings: post-emerge, 14 days after application, rating scale 0-100
In short: as §1

[8] = test system: johnsongrass (Sorghum halepense, SORHA); assay: as above; settings: post-emerge, 14 days after application, rating scale 0-100
In short: as §1

[9] = test system: sicklepod (Cassia obtusifolia, CASOB); assay: as above; settings: post-emerge, 14 days after application, rating scale 0-100
In short: as §1

[10] = test system: barnyardgrass (Echinochloa crus-galli, ECHCG); assay: Pre-emerge test, greenhouse herbicide activity screening; settings: for Pre-emerge Herbicidal Activity ECHCG: phytotoxicity rating 0-100, 14 days after application; for phytotoxicity rating ECHCG: pre-emerge, 14 days after application, scale 0-100
In short: (§2)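 Visual ratings on a 0-100 scale (0 no damage, 100 all plants dead) were taken at 14 days after treatment. Rates of 15-1000 g ai/ha in acetone, 187 l/ha, were sprayed onto soil one day after planting (pre-emerge) or onto 2-3 leaf plants with 0.25% v/v surfactant (post-emerge).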

[11] = test system: ivyleaf morningglory (Ipomoea hederacea, IPOHE); assay: as above; settings: for Pre-emerge Herbicidal Activity IPOHE: phytotoxicity rating 0-100, 14 days after application; for phytotoxicity rating IPOHE: pre-emerge, 14 days after application, scale 0-100
In short: as §2

[12] = test system: lambsquarters (Chenopodium album, CHEAL); assay: as above; settings: for Pre-emerge Herbicidal Activity CHEAL: phytotoxicity rating 0-100, 14 days after application; for phytotoxicity rating CHEAL: pre-emerge, 14 days after application, scale 0-100
In short: as §2

[13] = test system: green foxtail (Setaria viridis, SETVI); assay: as above; settings: for Pre-emerge Herbicidal Activity SETVI: phytotoxicity rating 0-100, 14 days after application; for phytotoxicity rating SETVI: pre-emerge, 14 days after application, scale 0-100
In short: as §2

[14] = test system: velvetleaf (Abutilon theophrasti, ABUTH); assay: as above; settings: for Pre-emerge Herbicidal Activity ABUTH: phytotoxicity rating 0-100, 14 days after application; for phytotoxicity rating ABUTH: pre-emerge, 14 days after application, scale 0-100
In short: as §2

[15] = test system: common ragweed (Ambrosia artemisizfolia L., AMBEL); assay: as above; settings: for Pre-emerge Herbicidal Activity AMBEL: phytotoxicity rating 0-100, 14 days after application; for phytotoxicity rating AMBEL: pre-emerge, 14 days after application, scale 0-100
In short: as §2

[16] = test system: large crabgrass (Digitaria sanguinalis, DIGSA); assay: as above; settings: for Pre-emerge Herbicidal Activity DIGSA: phytotoxicity rating 0-100, 14 days after application; for phytotoxicity rating DIGSA: pre-emerge, 14 days after application, scale 0-100
In short: as §2

[17] = test system: johnsongrass (Sorghum halepense, SORHA); assay: as above; settings: for Pre-emerge Herbicidal Activity SORHA: phytotoxicity rating 0-100, 14 days after application; for phytotoxicity rating SORHA: pre-emerge, 14 days after application, scale 0-100
In short: as §2

[18] = test system: sicklepod (Cassia obtusifolia, CASOB); assay: as above; settings: for Pre-emerge Herbicidal Activity CASOB: phytotoxicity rating 0-100, 14 days after application; for phytotoxicity rating CASOB: pre-emerge, 14 days after application, scale 0-100
In short: as §2

[19] = test system: field corn (Zea mays L., var. Dekalb 535, CORN); assay: Pre-emerge test, crop safety; settings: for Pre-emerge Herbicidal Activity CORN: crop damage rating 0-100, 14 days after application; for phytotoxicity rating CORN (crop damage): pre-emerge, 14 days after application, scale 0-100
In short: (§3)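 Compounds in acetone were track-sprayed at 15-1000 g ai/ha (187 l/ha) on sandy loam pots: pre-emerge one day after seeding, post-emerge at 2-3 leaf stage with 0.25% v/v non-ionic surfactant. Phytotoxicity was rated 14 days later on a 0 (no damage) to 100 (complete death) scale.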

[20] = test system: upland rice (Oryza sp., var. Tebonnet, RICE); assay: Pre-emerge test, crop safety; settings: for Pre-emerge Herbicidal Activity RICE: crop damage rating 0-100, 14 days after application; for phytotoxicity rating RICE (crop damage): pre-emerge, 14 days after application, scale 0-100
In short: as §3

[21] = test system: field corn (Zea mays L., var. Dekalb 535, CORN); assay: Post-emerge test, crop safety; settings: post-emerge, 14 days after application, rating scale 0-100
In short: as §2

[22] = test system: upland rice (Oryza sp., var. Tebonnet, RICE); assay: Post-emerge test, crop safety; settings: post-emerge, 14 days after application, rating scale 0-100
In short: as §2

[23] = test system: redroot pigweed (Amaranthus retroflexus, AMARE); assay: Pre-emerge test, greenhouse herbicide activity screening; settings: for Pre-emerge Herbicidal Activity AMARE: phytotoxicity rating 0-100, 14 days after application; for phytotoxicity rating AMARE: pre-emerge, 14 days after application, scale 0-100
In short: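 Herbicidal damage is scored 0 (none) to 100 (complete plant death) two weeks after a simulated field spray. Rates span 15–1000 g ai/ha, delivered in acetone at 187 l/ha. For post-emergence treatments, plants have 2–3 leaves and the spray carries 0.25% v/v non-ionic surfactant.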

[24] = 250 g ai/ha, rating scale 0-100

SMILES: Cn1c(C(F)(F)F)cc(=O)n(-c2ccc(Cl)cc2NC(=O)Oc2ccccc2)c1=O [4-50]
- phytotoxicity rating ECHCG ([1]; 63 g ai/ha): 0
- phytotoxicity rating ECHCG ([1]; 250 g ai/ha): 0
- phytotoxicity rating IPOHE ([2]; 63 g ai/ha): 30
- phytotoxicity rating IPOHE ([2]; 250 g ai/ha): 90
- phytotoxicity rating CHEAL ([3]; 63 g ai/ha): 40
- phytotoxicity rating CHEAL ([3]; 250 g ai/ha): 95
- phytotoxicity rating AMARE ([4]; 63 g ai/ha, rating scale 0-100 (0 no damage, 100 complete death)): 30
- phytotoxicity rating AMARE [4, 24]: 70
- phytotoxicity rating SETVI ([5]; 63 g ai/ha): 0
- phytotoxicity rating SETVI ([5]; 250 g ai/ha): 0
- phytotoxicity rating ABUTH ([6]; 63 g ai/ha): 60
- phytotoxicity rating ABUTH ([6]; 250 g ai/ha): 95
- phytotoxicity rating DIGSA ([7]; 63 g ai/ha): 0
- phytotoxicity rating DIGSA ([7]; 250 g ai/ha): 0
- phytotoxicity rating SORHA ([8]; 63 g ai/ha): 0
- phytotoxicity rating SORHA ([8]; 250 g ai/ha): 0
- phytotoxicity rating CASOB ([9]; 63 g ai/ha): 0
- phytotoxicity rating CASOB ([9]; 250 g ai/ha): 20
- Pre-emerge Herbicidal Activity ECHCG ([10]; 63 g ai/ha): 0
- Pre-emerge Herbicidal Activity ECHCG ([10]; 250 g ai/ha): 0
- Pre-emerge Herbicidal Activity IPOHE ([11]; 63 g ai/ha): 0
- Pre-emerge Herbicidal Activity IPOHE ([11]; 250 g ai/ha): 30
- Pre-emerge Herbicidal Activity CHEAL ([12]; 63 g ai/ha): 40
- Pre-emerge Herbicidal Activity CHEAL ([12]; 250 g ai/ha): 100
- Pre-emerge Herbicidal Activity SETVI ([13]; 63 g ai/ha): 0
- Pre-emerge Herbicidal Activity SETVI ([13]; 250 g ai/ha): 10
- Pre-emerge Herbicidal Activity ABUTH ([14]; 63 g ai/ha): 20
- Pre-emerge Herbicidal Activity ABUTH ([14]; 250 g ai/ha): 100
- Pre-emerge Herbicidal Activity AMBEL ([15]; 63 g ai/ha): 0
- Pre-emerge Herbicidal Activity AMBEL ([15]; 250 g ai/ha): 0
- Pre-emerge Herbicidal Activity DIGSA ([16]; 63 g ai/ha): 0
- Pre-emerge Herbicidal Activity DIGSA ([16]; 250 g ai/ha): 30
- Pre-emerge Herbicidal Activity SORHA ([17]; 63 g ai/ha): 0
- Pre-emerge Herbicidal Activity SORHA ([17]; 250 g ai/ha): 0
- Pre-emerge Herbicidal Activity CASOB ([18]; 63 g ai/ha): 0
- Pre-emerge Herbicidal Activity CASOB ([18]; 250 g ai/ha): 0
- Pre-emerge Herbicidal Activity CORN ([19]; 63 g ai/ha): 0
- Pre-emerge Herbicidal Activity CORN ([19]; 250 g ai/ha): 0
- Pre-emerge Herbicidal Activity RICE ([20]; 63 g ai/ha): 0
- Pre-emerge Herbicidal Activity RICE ([20]; 250 g ai/ha): 10
- phytotoxicity rating CORN (crop damage) ([21]; 63 g ai/ha): 0
- phytotoxicity rating CORN (crop damage) ([21]; 250 g ai/ha): 10
- phytotoxicity rating RICE (crop damage) ([22]; 63 g ai/ha): 0
- phytotoxicity rating RICE (crop damage) ([22]; 250 g ai/ha): 0
- Pre-emerge Herbicidal Activity AMARE ([23]; 63 g ai/ha): 20
- Pre-emerge Herbicidal Activity AMARE ([23]; 250 g ai/ha): 100

SMILES: CCCSCC(=O)Nc1c(OC)c(Cl)cc(F)c1-n1c(=O)cc(C(F)(F)F)n(C)c1=O [2-174]
- ECHCG phytotoxicity rating ([1]; 63 g ai/ha): 0
- ECHCG phytotoxicity rating ([1]; 250 g ai/ha): 0
- IPOHE phytotoxicity rating ([2]; 63 g ai/ha): 70
- IPOHE phytotoxicity rating ([2]; 250 g ai/ha): 80
- CHEAL phytotoxicity rating ([3]; 63 g ai/ha): 55
- CHEAL phytotoxicity rating ([3]; 250 g ai/ha): 85
- AMARE phytotoxicity rating ([4]; 63 g ai/ha, rating scale 0-100): 60
- AMARE phytotoxicity rating [4, 24]: 60
- SETVI phytotoxicity rating ([5]; 63 g ai/ha): 10
- SETVI phytotoxicity rating ([5]; 250 g ai/ha): 10
- ABUTH phytotoxicity rating ([6]; 63 g ai/ha): 60
- ABUTH phytotoxicity rating ([6]; 250 g ai/ha): 80
- DIGSA phytotoxicity rating ([7]; 63 g ai/ha): 0
- DIGSA phytotoxicity rating ([7]; 250 g ai/ha): 10
- SORHA phytotoxicity rating ([8]; 63 g ai/ha): 0
- SORHA phytotoxicity rating ([8]; 250 g ai/ha): 0
- CASOB phytotoxicity rating ([9]; 63 g ai/ha): 60
- CASOB phytotoxicity rating ([9]; 250 g ai/ha): 75
- phytotoxicity rating ECHCG ([10]; 63 g ai/ha): 0
- phytotoxicity rating ECHCG ([10]; 250 g ai/ha): 60
- phytotoxicity rating IPOHE ([11]; 63 g ai/ha): 30
- phytotoxicity rating IPOHE ([11]; 250 g ai/ha): 100
- phytotoxicity rating CHEAL ([12]; 63 g ai/ha): 80
- phytotoxicity rating CHEAL ([12]; 250 g ai/ha): 100
- phytotoxicity rating SETVI ([13]; 63 g ai/ha): 20
- phytotoxicity rating SETVI ([13]; 250 g ai/ha): 90
- phytotoxicity rating ABUTH ([14]; 63 g ai/ha): 100
- phytotoxicity rating ABUTH ([14]; 250 g ai/ha): 100
- phytotoxicity rating AMBEL ([15]; 63 g ai/ha): 10
- phytotoxicity rating AMBEL ([15]; 250 g ai/ha): 90
- phytotoxicity rating DIGSA ([16]; 63 g ai/ha): 20
- phytotoxicity rating DIGSA ([16]; 250 g ai/ha): 70
- phytotoxicity rating SORHA ([17]; 63 g ai/ha): 10
- phytotoxicity rating SORHA ([17]; 250 g ai/ha): 90
- phytotoxicity rating CASOB ([18]; 63 g ai/ha): 40
- phytotoxicity rating CASOB ([18]; 250 g ai/ha): 80
- phytotoxicity rating CORN (crop damage) ([19]; 63 g ai/ha): 0
- phytotoxicity rating CORN (crop damage) ([19]; 250 g ai/ha): 60
- phytotoxicity rating RICE (crop damage) ([20]; 63 g ai/ha): 10
- phytotoxicity rating RICE (crop damage) ([20]; 250 g ai/ha): 50
- CORN phytotoxicity rating (crop damage) ([21]; 63 g ai/ha): 10
- CORN phytotoxicity rating (crop damage) ([21]; 250 g ai/ha): 25
- RICE phytotoxicity rating (crop damage) ([22]; 63 g ai/ha): 20
- RICE phytotoxicity rating (crop damage) ([22]; 250 g ai/ha): 20
- phytotoxicity rating AMARE ([23]; 63 g ai/ha): 90
- phytotoxicity rating AMARE ([23]; 250 g ai/ha): 100
